# Measured values from patent US12599136B2, “Substituted isophthalic acid diamides and their use as herbicides” (Bayer Aktiengesellschaft, priority 2020, dated 2026).
# What was measured:
# Type in all cases: in vivo
# Abutilon theophrasti [1] = assay: Pre-emergence herbicidal action against ABUTH; settings: visual score after 3 weeks vs untreated controls
# In short: (§1)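 Greenhouse pots of sandy loam held seeds covered with soil, onto which the compound was applied before emergence. An aqueous suspension or emulsion of WP or EC was used at 600 to 800 l/ha with 0.2% wetting agent. Percent damage was judged visually at 3 weeks.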
# Alopecurus myosuroides [2] = assay: Pre-emergence herbicidal action against ALOMY; settings: visual score after 3 weeks vs untreated controls
# In short: as §1
# Amaranthus retroflexus [3] = assay: Pre-emergence herbicidal action against AMARE; settings: visual score after 3 weeks vs untreated controls
# In short: as §1
# Avena fatua [4] = assay: Pre-emergence herbicidal action against AVEFA; settings: visual score after 3 weeks vs untreated controls
# In short: as §1
# Cyperus esculentus [5] = assay: Pre-emergence herbicidal action against CYPES; settings: visual score after 3 weeks vs untreated controls
# In short: as §1
# Echinochloa crus-galli [6] = assay: Pre-emergence herbicidal action against ECHCG; settings: 320 g/ha; visual score after 3 weeks vs untreated controls
# In short: as §1
# Matricaria inodora [7] = assay: Pre-emergence herbicidal action against MATIN; settings: visual score after 3 weeks vs untreated controls
# In short: as §1
# Pharbitis purpurea [8] = assay: Pre-emergence herbicidal action against PHBPU; settings: 320 g/ha; visual score after 3 weeks vs untreated controls
# In short: as §1
# Hordeum murinum = assay: Pre-emergence herbicidal action against HORMU; settings: visual score after 3 weeks vs untreated controls
# In short: as §1
# Lolium rigidum [9] = assay: Pre-emergence herbicidal action against LOLRI
# In short: as §1
# Polygonum convolvulus [10] = assay: Pre-emergence herbicidal action against POLCO
# In short: as §1
# Setaria viridis [11] = assay: Pre-emergence herbicidal action against SETVI
# In short: as §1
# Stellaria media [12] = assay: Pre-emergence herbicidal action against STEME
# In short: as §1
# Veronica persica [13] = assay: Pre-emergence herbicidal action against VERPE; settings: 320 g/ha
# In short: as §1
# Viola tricolor [14] = assay: Pre-emergence herbicidal action against VIOTR
# In short: as §1
# Abutilon theophrasti [15] = assay: Post-emergence herbicidal action against ABUTH
# In short: (§2)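 A WP or EC formulation diluted in water with 0.2% wetting agent was sprayed at 600 to 800 l/ha onto one-leaf-stage plants grown in sandy loam. About 3 weeks later, action was rated visually in percent, 100% being dead plants.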
# Alopecurus myosuroides [16] = assay: Post-emergence herbicidal action against ALOMY
# In short: as §2
# Amaranthus retroflexus [17] = assay: Post-emergence herbicidal action against AMARE; settings: visual assessment about 3 weeks after treatment
# In short: as §2
# Avena fatua [18] = assay: Post-emergence herbicidal action against AVEFA; settings: visual assessment about 3 weeks after treatment
# In short: as §2
# Cyperus esculentus [19] = assay: Post-emergence herbicidal action against CYPES; settings: 80 g/ha, visual assessment about 3 weeks after treatment
# Method: (§3) Seeds of monocotyledonous and dicotyledonous weed and crop plants are laid out in sandy loam soil in wood-fiber pots, covered with soil and cultivated in a greenhouse under good growth conditions. 2 to 3 weeks after sowing, the test plants are treated at the one-leaf stage. The compounds of the invention, formulated in the form of wettable powders (WP) or as emulsion concentrates (EC), are then sprayed onto the green parts of the plants in the form of an aqueous suspension or emulsion at a water application rate equivalent to 600 to 800 l/ha, with addition of 0.2% wetting agent. After the test plants have been left to stand in the greenhouse under optimal growth conditions for about 3 weeks, the action of the preparations is assessed visually in comparison to untreated controls (herbicidal action in percent (%): 100% activity=the plants have died, 0% activity=like control plants). […] The tables below illustrate, in an illustrative manner, the post-emergence herbicidal action of the compounds of the invention, the herbicidal activity being stated in percent.
# Echinochloa crus-galli [20] = assay: Post-emergence herbicidal action against ECHCG; settings: visual assessment about 3 weeks after treatment
# In short: as §2
# Matricaria inodora [21] = assay: Post-emergence herbicidal action against MATIN; settings: 80 g/ha, visual assessment about 3 weeks after treatment
# In short: as §2
# Pharbitis purpurea [22] = assay: Post-emergence herbicidal action against PHBPU; settings: visual assessment about 3 weeks after treatment
# In short: as §2
# Lolium rigidum [23] = assay: Post-emergence herbicidal action against LOLRI
# Method: as §3
# Polygonum convolvulus [24] = assay: Post-emergence herbicidal action against POLCO; settings: visual assessment about 3 weeks after treatment
# In short: as §2
# Setaria viridis [25] = assay: Post-emergence herbicidal action against SETVI; settings: visual assessment about 3 weeks after treatment
# In short: as §2
# Stellaria media [26] = assay: Post-emergence herbicidal action against STEME; settings: visual assessment about 3 weeks after treatment
# In short: as §2
# Veronica persica [27] = assay: Post-emergence herbicidal action against VERPE; settings: visual assessment about 3 weeks after treatment
# In short: as §2
# Viola tricolor [28] = assay: Post-emergence herbicidal action against VIOTR; settings: 80 g/ha
# In short: as §2
structure (smiles),measurement,setting,value
Cn1nnnc1NC(=O)c1ccc(C(F)(F)F)c(C(=O)N2CCCC2)c1Cl [Example 1-152],Pre-emergence action against ABUTH,Abutilon theophrasti [1]; 20 g/ha,100%
same,Pre-emergence action against ABUTH,Abutilon theophrasti [1]; 80 g/ha,100%
same,Pre-emergence action against ABUTH,Abutilon theophrasti [1]; Dosage column 320 g/ha (heading prints 3200 g/ha),100%
same,Pre-emergence action against ALOMY,Alopecurus myosuroides [2]; 20 g/ha,80%
same,Pre-emergence action against ALOMY,Alopecurus myosuroides [2]; 80 g/ha,90%
same,Pre-emergence action against ALOMY,Alopecurus myosuroides [2]; 320 g/ha,100%
same,Pre-emergence action against AMARE,Amaranthus retroflexus [3]; 20 g/ha,100%
same,Pre-emergence action against AMARE,Amaranthus retroflexus [3]; 80 g/ha,100%
same,Pre-emergence action against AMARE,Amaranthus retroflexus [3]; 320 g/ha,100%
same,Pre-emergence action against AVEFA,Avena fatua [4]; 80 g/ha,100%
same,Pre-emergence action against AVEFA,Avena fatua [4]; 320 g/ha,100%
same,Pre-emergence action against CYPES,Cyperus esculentus [5]; 80 g/ha,90%
same,Pre-emergence action against CYPES,Cyperus esculentus [5]; 320 g/ha,100%
same,Pre-emergence action against ECHCG,Echinochloa crus-galli [6],100%
same,Pre-emergence action against MATIN,Matricaria inodora [7]; 20 g/ha,100%
same,Pre-emergence action against MATIN,Matricaria inodora [7]; 80 g/ha,100%
same,Pre-emergence action against MATIN,Matricaria inodora [7]; 320 g/ha,100%
same,Pre-emergence action against PHBPU,Pharbitis purpurea [8],80%
same,Pre-emergence action against HORMU,Hordeum murinum; 80 g/ha,90%
same,Pre-emergence action against HORMU,Hordeum murinum; 320 g/ha,100%
same,Pre-emergence action against LOLRI,Lolium rigidum [9]; 80 g/ha,80%
same,Pre-emergence action against LOLRI,Lolium rigidum [9]; 320 g/ha,100%
same,Pre-emergence action against POLCO,Polygonum convolvulus [10]; 80 g/ha,80%
same,Pre-emergence action against POLCO,Polygonum convolvulus [10]; 320 g/ha,100%
same,Pre-emergence action against SETVI,Setaria viridis [11]; 20 g/ha,100%
same,Pre-emergence action against SETVI,Setaria viridis [11]; 80 g/ha,100%
same,Pre-emergence action against SETVI,Setaria viridis [11]; 320 g/ha,100%
same,Pre-emergence action against STEME,Stellaria media [12]; 20 g/ha,90%
same,Pre-emergence action against STEME,Stellaria media [12]; 80 g/ha,100%
same,Pre-emergence action against STEME,Stellaria media [12]; 320 g/ha,100%
same,Pre-emergence action against VERPE,Veronica persica [13],90%
same,Pre-emergence action against VIOTR,Viola tricolor [14]; 80 g/ha,100%
same,Pre-emergence action against VIOTR,Viola tricolor [14]; 320 g/ha,100%
same,Post-emergence action against ABUTH,Abutilon theophrasti [15]; 5 g/ha,100%
same,Post-emergence action against ABUTH,Abutilon theophrasti [15]; 20 g/ha,100%
same,Post-emergence action against ABUTH,Abutilon theophrasti [15]; 80 g/ha,100%
same,Post-emergence action against ALOMY,Alopecurus myosuroides [16]; 20 g/ha,80%
same,Post-emergence action against ALOMY,Alopecurus myosuroides [16]; 80 g/ha,90%
same,Post-emergence action against AMARE in %,Amaranthus retroflexus [17]; 5 g/ha,100%
same,Post-emergence action against AMARE in %,Amaranthus retroflexus [17]; 20 g/ha,100%
same,Post-emergence action against AMARE in %,Amaranthus retroflexus [17]; 80 g/ha,100%
same,Post-emergence action against AVEFA in %,Avena fatua [18]; 20 g/ha,90%
same,Post-emergence action against AVEFA in %,Avena fatua [18]; 80 g/ha,100%
same,Post-emergence action against CYPES in %,Cyperus esculentus [19],80%
same,Post-emergence action against ECHCG in %,Echinochloa crus-galli [20]; 5 g/ha,80%
same,Post-emergence action against ECHCG in %,Echinochloa crus-galli [20]; 20 g/ha,90%
same,Post-emergence action against ECHCG in %,Echinochloa crus-galli [20]; 80 g/ha,100%
same,Post-emergence action against MATIN in %,Matricaria inodora [21],90%
same,Post-emergence action against PHBPU in %,Pharbitis purpurea [22]; 5 g/ha,80%
same,Post-emergence action against PHBPU in %,Pharbitis purpurea [22]; 20 g/ha,90%
same,Post-emergence action against PHBPU in %,Pharbitis purpurea [22]; 80 g/ha,90%
same,Post-emergence action against LOLRI in %,Lolium rigidum [23]; 20 g/ha,90%
same,Post-emergence action against LOLRI in %,Lolium rigidum [23]; 80 g/ha,100%
same,Post-emergence action against POLCO in %,Polygonum convolvulus [24]; 5 g/ha,80%
same,Post-emergence action against POLCO in %,Polygonum convolvulus [24]; 80 g/ha,80%
same,Post-emergence action against SETVI in %,Setaria viridis [25]; 5 g/ha,100%
same,Post-emergence action against SETVI in %,Setaria viridis [25]; 20 g/ha,100%
same,Post-emergence action against SETVI in %,Setaria viridis [25]; 80 g/ha,100%
same,Post-emergence action against STEME in %,Stellaria media [26]; 5 g/ha,90%
same,Post-emergence action against STEME in %,Stellaria media [26]; 20 g/ha,90%
same,Post-emergence action against STEME in %,Stellaria media [26]; 80 g/ha,100%
same,Post-emergence action against VERPE in %,Veronica persica [27]; 20 g/ha,90%
same,Post-emergence action against VERPE in %,Veronica persica [27]; 80 g/ha,90%
same,Post-emergence action against VIOTR in %,Viola tricolor [28],90%
